Source: patent US20170348306A1, “METHODS OF TREATING CANCER” (GLAXOSMITHKLINE LLC, priority 2011, published 2017)

Experiments:
Assay in all cases: Cell proliferation assay (6 days, CellTiter-Glo)
Assay type in all cases: cell-based
CA46 = conditions: Homo sapiens, 144 h, BURKITT, EZH2 D185H (HET), read-out: AVERAGE GROWTH IC50
Excerpt: (§1) Thus, Example 22 and Table 6 better reflect the inhibition of HZH2 inhibitors on cell lines, e.g. the lymphoma cell lines. DLBCL cell lines were the most sensitive to EZH2 inhibition (FIG. 11a). […] Evaluation of GSK126 in additional lymphoma cell lines and extensive genomic and epigenomic characterization will be required to fully elucidate the determinants of sensitivity among lymphoma subtypes.
(§2) Biochemical assays utilized the 5-member PRC2 complex (human Flag-EZH2, EED, SUZ12, AEBP2, RbAp48) containing either WT or mutant EZH2, [^3H-]SAM and the indicated peptide substrate; reactions were incubated for 30 minutes. Global histone modification levels were determined by ELISA or western blot methods using antibodies specific for total histone H3, H3K27me1, H3K27me2, or H3K27me3. Cell proliferation and Caspase-3/7 activity were assessed using CellTiter-Glo and Caspase-Glo 3/7 (Promega), respectively. Gene expression profiling was conducted using Affymetrix Human Genome U133 Plus 2.0 microarrays. Differentially-expressed probe sets were determined by fitting the data to a linear model using the limma statistical package (http://www.bioconductor.org) and carrying out pair-wise contrasts of treated versus control. Significant probe sets were filtered for detection (log2 signal threshold of 8), an average fold-change >2 or <−2, or >1.5 or <−1.5, where indicated, with p-values adjusted for multiple testing correction by FDR (Benjamini Hochberg)<0.1. H3K27me3 ChIP reads were aligned using Bowtie (56). H3K27me3 enrichment peaks were identified using SICER (57) with optimized parameters. A custom PERL script was utilized to quantify the average basal H3K27me3 ChIP-seq tag density across gene sets. All in vivo studies were conducted after review by the Institutional Animal Care and Use Committee at GSK and in accordance with the GSK Policy on the Care, Welfare and Treatment of Laboratory Animals. GSK126 and vehicle were administered to mice intraperitoneally. Two-tailed t-tests were conducted assuming two samples of equal variance.
(§3) The optimal cell seeding was determined empirically for all cell lines by examining the growth of a wide range of seeding densities in a 384-well format to identify conditions that permitted proliferation for 6 days. […] Plates were incubated for 6 days at 37° C. in 5% CO2. Cells were then lysed with CellTiter-Glo (Promega) and chemiluminescent signal was detected with a TECAN Safire2 microplate reader. In addition, an untreated plate of cells was harvested at the time of compound addition (T0) to quantify the starting number of cells. CTG values obtained after the 6 day treatment were expressed as a percent of the T0 value and plotted against compound concentration.

CI-1 = conditions: Homo sapiens, 144 h, B-NHL, EZH2 D185H (HET), read-out: AVERAGE GROWTH IC50
Excerpt: as §1, §2, §3

Daudi = conditions: Homo sapiens, 144 h, BURKITT, EZH2 WT, read-out: AVERAGE GROWTH IC50
Excerpt: as §1, §2, §3

Farage = conditions: Homo sapiens, 144 h, DLBCL, EZH2 D185H (HET), read-out: AVERAGE GROWTH IC50
Excerpt: as §1, §2, §3

HD-MY-Z = conditions: Homo sapiens, 144 h, HODGKIN'S, EZH2 WT, read-out: AVERAGE GROWTH IC50
Excerpt: as §1, §2, §3

HT = conditions: Homo sapiens, 144 h, DLBCL, EZH2 WT, read-out: AVERAGE GROWTH IC50
Excerpt: as §1, §2, §3

NU-DUL-1 = conditions: Homo sapiens, 144 h, B-NHL, EZH2 WT, read-out: AVERAGE GROWTH IC50
Excerpt: as §1, §2, §3

OCI-LY-19 = conditions: Homo sapiens, OCI-LY19, 144 h, DLBCL, EZH2 WT, read-out: AVERAGE GROWTH IC50
Excerpt: as §1, §2, §3

P3HR-1 = conditions: Homo sapiens, 144 h, BURKITT, EZH2 WT, read-out: AVERAGE GROWTH IC50
Excerpt: as §1, §2, §3

RC-K8 = conditions: Homo sapiens, RCK8, 144 h, B-NHL, EZH2 D185H (HET), read-out: AVERAGE GROWTH IC50
Excerpt: as §1, §2, §3

RI-1 = conditions: Homo sapiens, 144 h, MCL, EZH2 WT, read-out: AVERAGE GROWTH IC50
Excerpt: as §1, §2, §3

RL = conditions: Homo sapiens, 144 h, DLBCL, EZH2 Y641N, D185H (HET), read-out: AVERAGE GROWTH IC50
Excerpt: as §1, §2, §3

RPMI-6666 = conditions: Homo sapiens, 144 h, HODGKIN'S, EZH2 WT, read-out: AVERAGE GROWTH IC50
Excerpt: as §1, §2, §3

Raji = conditions: Homo sapiens, 144 h, BURKITT, EZH2 WT, read-out: AVERAGE GROWTH IC50
Excerpt: as §1, §2, §3

SU-DHL-16 = conditions: Homo sapiens, 144 h, B-NHL, EZH2 D185H (HET), read-out: AVERAGE GROWTH IC50
Excerpt: as §1, §2, §3

SU-DHL-5 = conditions: Homo sapiens, 144 h, DLBCL, EZH2 WT, read-out: AVERAGE GROWTH IC50
Excerpt: as §1, §2, §3

SU-DHL-6 = conditions: Homo sapiens, 144 h, DLBCL, EZH2 Y641N (HET), read-out: AVERAGE GROWTH IC50
Excerpt: as §1, §2, §3

SU-DHL-8 = conditions: Homo sapiens, 144 h, DLBCL, EZH2 WT, read-out: AVERAGE GROWTH IC50
Excerpt: as §1, §2, §3

Toledo = conditions: Homo sapiens, 144 h, DLBCL, EZH2 WT, read-out: AVERAGE GROWTH IC50
Excerpt: as §1, §2, §3

U-2932 = conditions: Homo sapiens, U2932, 144 h, DLBCL, EZH2 WT, read-out: AVERAGE GROWTH IC50
Excerpt: as §1, §2, §3

U-2940 = conditions: Homo sapiens, 144 h, DLBCL, EZH2 WT, read-out: AVERAGE GROWTH IC50
Excerpt: as §1, §2, §3

U-698-M = conditions: Homo sapiens, 144 h, B-NHL, EZH2 WT, read-out: AVERAGE GROWTH IC50
Excerpt: as §1, §2, §3

WILL-2 = conditions: Homo sapiens, 144 h, DLBCL, EZH2 WT, read-out: AVERAGE GROWTH IC50
Excerpt: as §1, §2, §3

In the case of CC[C@H](C)n1cc(C)c2c(C(=O)NCc3c(C)cc(C)[nH]c3=O)cc(-c3ccc(N4CCNCC4)nc3)cc21 [GSK126], the IC50 (CA46) is reported as 6.58 µM, the IC50 (CI-1) is reported as 4.28 µM and the IC50 (Daudi) is reported as 1.27 µM. For the same molecule, the IC50 (Farage) was 1.72 µM, the IC50 (HD-MY-Z) was 10.7 µM and the IC50 (HT) was 0.516 µM. For the same molecule, the IC50 (NU-DUL-1) was 17.1 µM, the IC50 (OCI-LY-19) was 1.02 µM and the IC50 (P3HR-1) was 3.21 µM. For the same molecule, the IC50 (RC-K8) was 4.53 µM, the IC50 (RI-1) was 7.66 µM and the IC50 (RL) was 4.73 µM. For the same molecule, the IC50 (RPMI-6666) was 1.43 µM, the IC50 (Raji) was 7.87 µM and the IC50 (SU-DHL-16) was 3.28 µM. It also gave an IC50 (SU-DHL-5) of 2.3 µM, an IC50 (SU-DHL-6) of 0.582 µM and an IC50 (SU-DHL-8) of 3.19 µM. It also gave an IC50 (Toledo) of 13.8 µM, an IC50 (U-2932) of 2.94 µM and an IC50 (U-2940) of 4.56 µM. The IC50 (U-698-M) was 5.6 µM and the IC50 (WILL-2) was 27.5 µM.
